In patent US20080114047A1 (priority 2003, published 2008) one finds IC50 and melting point data, which are given here for 17 compounds.

One data set has as its system Plasmodium falciparum. Put plainly: Anti-protozoan data: P. falcip. IC50. The data set is classed as cell-based. The following applies: read-out: P. falcip. IC50.
Data set [1] deals with Trypanosoma brucei rhodesiense. Put plainly: Anti-protozoan data: T.b.r. IC50. The data set is classed as cell-based. The following applies: read-out: T.b.r. IC50.
Data set [2] deals with L. donovani axenic amastigotes. Put plainly: In vitro anti-leishmania activity (IC50 vs. L. donovani axenic amastigotes). It counts as cell-based. Conditions: Leishmania donovani.
Setting [3] is: axenic amastigotes, Tables I-V, read-out: IC50 vs. L. donovani.
The mark [4] stands for this setting: Tables VI(a), VI(c), read-out: Leishmania donovani IC50.

Molecules are shown by their SMILES. Like-named read-outs stand apart in the source and are kept apart here. Where only a bound is given, the exact number is not on record here.

With `N=C(NO)c1cccc(-c2cc3ccc(C(=N)NO)cc3o2)c1` [Compound 180, 2-(3-(N-Hydroxycarbamimidoyl)phenyl)-N-hydroxybenzofuran-6-carboxamidine], the IC50 (as a rule, the point on the concentration scale where inhibition reaches its midpoint) in the data set with Plasmodium falciparum came out at 1.85 µM; in “in vitro”, 13.8 µM; in data set [1], 37.8 µM; in data set [2] (read-out: L. Donovani IC50), 68.5 ± 6.16 µM.

Regarding `CC(C)NC(=N)c1ccc(-c2cc3ccc(C(=N)NC(C)C)cc3o2)cc1` [Compound 173, 2-(4-(N-isopropylcarbamimidoyl)phenyl)-N-isopropylbenzofuran-6-carboxamidine], the IC50 in the data set on Plasmodium falciparum is 0.0145 µM; in “in vitro”, over 199 µM; in data set [1], 0.148 µM; in data set [2] (setting [3]), 11.8 ± 1.28 µM; in data set [2] (read-out: L. Donovani IC50), 11.8 ± 1.28 µM.

Consider `CC(C)NC(=N)c1ccc(OCCCCCCOc2cccc(-c3cc4ccc(C(=N)NC(C)C)cc4o3)c2)cc1.Cl.Cl` [Compound 66, 2-(3-(6-(4-(N-Isopropylcarbamimidoyl)phenoxy)hexyloxy)phenyl)-N-isopropylbenzofuran-6-carboxamidine dihydrochloride], for which the melting point (usually the temperature of the solid-liquid transition) was 283 to 285 °C. The IC50 in the data set on Plasmodium falciparum (Tables VI(a), VI(c)) amounted to 0.347 µM. The compound further showed an IC50 in the data set “in vitro” of 10.1 µM. The IC50 in data set [1] (Tables VI(a), VI(c)) was determined as 0.42 µM. Further, the IC50 in data set [2] (setting [4]) was 6.18 ± 0.06 µM. Besides, the 50% inhibitory concentration (IC50) in data set [2] (setting [3]) came out at 6.18 ± 0.06 µM.

With `N=C(N)c1ccc(-c2cc3ccc(C(=N)N)cc3o2)cc1` [Compound 172, 2-(4-carbamimidoylphenyl)benzofuran-6-carboxamidine], the IC50 was 0.0031 µM with Plasmodium falciparum; 0.83 µM in “in vitro”; 0.0069 µM in data set [1]; 3.13 ± 0.15 µM in data set [2] (setting [3]); 3.13 ± 0.15 µM in data set [2] (read-out: L. Donovani IC50).

With `c1cc(-c2cc3ccc(C4=NCCN4)cc3o2)ccc1C1=NCCN1` [Compound 174, 2-(4-(6-(4,5-dihydro-1H-imidazol-2-yl)benzofuran-2-yl)phenyl)-4,5-dihydro-1H-imidazole], the half-maximal inhibitory concentration (IC50) in the data set on Plasmodium falciparum was 0.109 µM; in the data set “in vitro”, 4.52 µM; in data set [1] it was 0.319 µM; in data set [2] (setting [3]), over 50 µM; in data set [2] (read-out: L. Donovani IC50), over 50 µM.

In the case of `Cl.Cl.N=C(N)c1ccc(OCCCCCOc2ccc(-c3cc4ccc(C(=N)N)cc4o3)cc2)cc1` [Compound 74, 2-(4-(5-(4-Carbamimidoylphenoxy)pentyloxy)phenyl)benzofuran-6-carboxamidine dihydrochloride], the melting point was 285 °C (dec.). The half-inhibitory concentration (IC50) in the data set on Plasmodium falciparum (Tables VI(a), VI(c)) turned out to be 0.268 µM. Further, 8.98 µM corresponded to half-maximal inhibition in “in vitro” (IC50). Besides, the IC50 in data set [1] (Tables VI(a), VI(c)) was found to be 0.314 µM. In addition, the IC50 in data set [2] (setting [4]) came out at 2.9 ± 0.14 µM.

`Cl.Cl.c1cc(OCCCCOc2ccc(C3=NCCN3)cc2)cc(-c2cc3cc(C4=NCCN4)ccc3o2)c1` [Compound 37, 2-(2-(3-(4-(4-(4,5-Dihydro-1H-imidazol-2-yl)phenoxy)butoxy)phenyl)benzofuran-5-yl)-4,5-dihydro-1H-imidazole dihydrochloride] displayed a melting point of 190 to 195 °C. Also, the concentration for half-maximal inhibition (IC50) in the data set with Plasmodium falciparum (Tables VI(a), VI(c)) turned out to be 0.0986 µM. In addition, the IC50 in the data set “in vitro” is 9.52 µM. Also, the IC50 in data set [1] (Tables VI(a), VI(c)) came to 1.17 µM. The half-inhibitory concentration (IC50) in data set [2] (setting [4]) was determined as 11.7 ± 0.14 µM. In addition, the half-maximal inhibitory concentration (IC50) in data set [2] (setting [3]) was determined as 11.7 ± 0.14 µM.

`c1cc(C2=NCCN2)cc(-c2cc3ccc(C4=NCCN4)cc3o2)c1` [Compound 171, 2-(3-(6-(4,5-dihydro-1H-imidazol-2-yl)benzofuran-2-yl)phenyl)-4,5-dihydro-1H-imidazole]: the IC50 in the data set with Plasmodium falciparum is 0.205 µM; in the data set “in vitro”, 12.8 µM; in data set [1], 0.333 µM; in data set [2] (setting [3]), over 100 µM; in data set [2] (read-out: L. Donovani IC50) it was over 100 µM.

Regarding `CC(C)NC(=N)c1cccc(-c2cc3ccc(C(=N)NC(C)C)cc3o2)c1` [Compound 170, 2-(3-(N-isopropylcarbamimidoyl)phenyl)-N-isopropylbenzofuran-6-carboxamidine], the half-maximal inhibitory concentration (IC50) in the data set on Plasmodium falciparum was 0.0586 µM; in the data set “in vitro”, over 200 µM; in data set [1] it was 0.534 µM; in data set [2] (setting [3]), 24.4 ± 0.1 µM; in data set [2] (read-out: L. Donovani IC50) it was 24.4 ± 0.1 µM.

Turning to `Cl.Cl.N=C(N)c1ccc(OCCCCCCOc2ccc(-c3cc4ccc(C(=N)N)cc4o3)cc2)cc1` [Compound 77, 2-(4-(6-(4-Carbamimidoylphenoxy)hexyloxy)phenyl)benzofuran-6-carboxamidine dihydrochloride], the melting point lay within 310 to 311 °C. Also, the IC50 in the data set with Plasmodium falciparum (Tables VI(a), VI(c)) stood at 0.28 µM. The same compound showed an IC50 in “in vitro” of 8.02 µM. The concentration for half-maximal inhibition (IC50) in data set [1] (Tables VI(a), VI(c)) was determined as 0.416 µM.

In the case of `COc1cc(C(=N)N)cc2cc(-c3ccc(C(=N)N)cc3)oc12` [Compound 175, 2-(4-carbamimidoylphenyl)-7-methoxybenzofuran-5-carboxamidine], the half-maximal inhibitory concentration (IC50) with Plasmodium falciparum came out at 0.0056 µM; in the data set “in vitro” it was 30.7 µM; in data set [1], 0.006 µM; in data set [2] (setting [3]), 3 ± 0.56 µM; in data set [2] (read-out: L. Donovani IC50), 3 ± 0.56 µM.

As for `N=C(N)c1cccc(-c2cc3ccc(C(=N)N)cc3o2)c1` [Compound 169, 2-(3-carbamimidoylphenyl)benzofuran-6-carboxamidine], the IC50 in the data set on Plasmodium falciparum came to 0.0035 µM; in the data set “in vitro”, 131 µM; in data set [1], 0.021 µM; in data set [2] (setting [3]), 14.4 µM; in data set [2] (read-out: L. Donovani IC50), 14.4 µM.

Take `COc1cc(C2=NCCN2)cc2cc(-c3ccc(C4=NCCN4)cc3)oc12` [Compound 177, 2-(4-(5-(4,5-dihydro-1H-imidazol-2-yl)-7-methoxybenzofuran-2-yl)phenyl)-4,5-dihydro-1H-imidazole]: the IC50 with Plasmodium falciparum stood at 0.0323 µM; in the data set “in vitro” it was 19.9 µM; in data set [1], 0.124 µM; in data set [2] (setting [3]), 4.45 ± 0.36 µM; in data set [2] (read-out: L. Donovani IC50), 4.45 ± 0.36 µM.

For `N=C(NO)c1ccc(OCCCCCOc2ccc(-c3cc4cc(C(=N)NO)ccc4o3)cc2)cc1` [Compound 183, 2-(4-(5-(4-(N-Hydroxycarbamimidoyl)phenoxy)pentyloxy)phenyl)-N-hydroxybenzofuran-5-carboxamidine], the IC50 is 0.291 µM in the data set on Plasmodium falciparum (Tables VI(a), VI(c)); 8.28 µM in the data set “in vitro”; 1.55 µM in data set [1] (Tables VI(a), VI(c)).

For `N=C(NO)c1ccc2oc(CCc3cc4cc(C(=N)NO)ccc4o3)cc2c1` [Compound 190, 2-(2-(5-(N-Hydroxycarbamimidoyl)benzofuran-2-yl)ethyl)-N-hydroxybenzofuran-5-carboxamidine], the IC50 is 0.4 µM in the data set on Plasmodium falciparum (Tables VI(a), VI(c)); over 199 µM in “in vitro”; 10.1 µM in data set [1] (Tables VI(a), VI(c)).

`N=C(NO)c1ccc(-c2cc3ccc(C(=N)NO)cc3o2)cc1` [Compound 181, 2-(4-(N-Hydroxycarbamimidoyl)phenyl)-N-hydroxybenzofuran-6-carboxamidine]: the concentration for half-maximal inhibition (IC50) with Plasmodium falciparum was 0.609 µM; in the data set “in vitro”, over 222 µM; in data set [1], 3.1 µM; in data set [2] (read-out: L. Donovani IC50) it was over 100 µM.

As to `c1cc(OCCCCCCOc2ccc(C3=NCCN3)cc2)cc(-c2cc3cc(C4=NCCN4)ccc3o2)c1` [Compound 43, 2-(2-(3-(6-(4-(4,5-Dihydro-1H-imidazol-2-yl)phenoxy)hexyloxy)phenyl)benzofuran-5-yl)-4,5-dihydro-1H-imidazole], the 50% inhibitory concentration (IC50) in the data set with Plasmodium falciparum (Tables VI(a), VI(c)) is 0.0494 µM; in “in vitro”, 2.46 µM; in data set [1] (Tables VI(a), VI(c)), 0.996 µM; in data set [2] (setting [4]), 1.92 ± 0.19 µM.
